From patent publication US6054441A, “Oxypurine nucleosides and their congeners, and acyl derivatives thereof, for improvement of hematopoiesis” (priority 1995, dated 2000)

Legend:
[1] = test system: hematopoietic recovery after cyclophosphamide; experiment: Hematopoietic recovery after cyclophosphamide (Example 51); format: in vivo, Balb/C mice; settings: day 5; 2 μmoles/mouse
Description: Cyclophosphamide (CP) (275 mg/kg, i.p.) was administered to 88 Balb/C female mice weighing approximately 20 grams each. Twenty-four hours later and each day thereafter mice were given a 0.4 ml i.p. injection of either Tween-80 (0.2%) (controls), 3'-O-palmitoyldeoxyguanosine (2 μmoles/mouse), butyryldeoxyguanosine (2 μmoles/mouse), palmitoyl-N-isobutyryldeoxyguanosine (2 μmoles/mouse), lauryldeoxyguanosine (2 μmoles/mouse), octanoyldeoxyguanosine (2 μmoles/mouse), and palmitoyldeoxyguanosine (2 μmoles/mouse). On days 5 and 7 following CP administration 6 or 7 animals in each of the 7 groups were bled and then sacrificed by cervical dislocation. Spleens were removed and weighed, and complete blood cell counts performed.

[2] = test system: hematopoietic recovery after cyclophosphamide; experiment: Hematopoietic recovery after cyclophosphamide (Example 48); format: in vivo, Balb/C mice; settings: day 7; vs controls
Description: Cyclophosphamide (CP) (275 mg/kg, i.p.) was administered to 36 Balb/C female mice weighing approximately 20 grams each. Twenty four hours later and each day thereafter for a total of 4 or 6 days, mice were given a 0.4 ml i.p. injection of either physiological saline (controls), palmitoyldeoxyinosine (2.5 μmoles/mouse), or palmitoylxanthosine (2.5 μmoles/mouse). On days 5 and 7 following CP administration 6 of the 12 animals in each of the 3 groups were bled and then sacrificed by cervical dislocation. Spleens were removed and weighed, and complete blood cell counts performed.

[3] = test system: hematopoiesis in normal mice; experiment: Hematopoiesis in normal mice (Example 56); format: in vivo, Balb/C mice; settings: femoral bone marrow; day 5; 2.6 μmoles/mouse, 4 days
Description: Normal Balb/C female mice weighing approximately 20 grams each were given a daily 0.4 ml i.p. injection of either physiological saline (controls), palmitoylguanosine (2.6 μmoles/mouse), palmitoyldeoxyguanosine (2.6 μmoles/mouse), monopalmitoylguanosine 2',3'-acyclic dialcohol (2.6 μmoles/mouse), and palmitoyl-8-bromoguanosine (2.6 μmoles/mouse) for 4 days. On the fifth day all 3 animals in each of the 5 groups were bled and then sacrificed by cervical dislocation. Spleens were removed and weighed, and complete blood cell counts performed. Femoral bone marrow from each mouse was collected and a differential cell count performed on marrow smears.

FDCPmix cells = experiment: Proliferation of FDCPmix cells, MTT assay (Example 69); format: cell-based; settings: for inhibition of proliferation: 10 micrograms/ml down; for activity at 0.01 µg/mL / activity at 0.039 µg/mL / activity at 0.156 µg/mL / activity at 0.625 µg/mL / activity at 2.5 µg/mL / activity at 10 µg/mL: 48 h, read-out: Cell proliferation
Description: The FDCPmix cell line was used as a suitable in vitro model for predicting the effects of hematopoietic factors on pluripotential stem cells. These cells can be maintained in an-undifferentiated state in the presence of IL-3 or undergo multi-lineage development in the presence of specific hematopoietic growth factors.
This level of proliferation (100%) served as the control value. Inhibition of proliferation by test compounds was represented as a percent of control.
FDCPmix cells were plated at a density of 5×10^4 cells per well in 96-well plates (5×10^5 /ml) using IMDM medium plus 10% fetal bovine serum. […] Test compounds were added at a decreasing concentrations ranging from 10 micrograms/ml down to 1 nanogram/ml. The test compounds included: 3',5'-O-N^2 -tripalmitoyl-2'-deoxyguanosine, 3',5'-di-O-palmitoyl-2'-deoxyguanosine, 3',5'-O-N^2 -trioctanoyl-2'-deoxyguanosine, 3',5'-di-O-octanoyl-2'-deoxyguanosine, and 3',5'-O-N^2 -trioleyl-2'-deoxyguanosine.

[4] = test system: blood cell counts after cyclophosphamide; experiment: Hematopoietic recovery after cyclophosphamide (Example 63); format: in vivo, Balb-C mice; settings: for Neutrophils / Platelets / WBC / Spleen: 7 days after CP; for Spleen: 25 mg/kg TriPdG or molar equivalent
Description: Fifty-eight female Balb-C mice weighing approximately 20 grams each received a single injection of cyclophosphamide (250 mg/kg, i.p.), and were then distributed into a vehicle control group (0.2% Tween-80+7.5% DMSO in saline; n=12) or one of five treatment groups:
Vehicle or treatment agents were administered to mice once daily for five days at a volume of 0.4 ml by i.p. injection. TriPdG was given at a dose of 25 mg/kg/treatment. The other four agents were given in doses that are the molar equivalent of 25 mg/kg/treatment of TriPdG. On days 5 and 7 following CP administration half of the animals from each of the six groups were bled and then sacrificed by cervical dislocation. Five untreated mice were also bled and sacrificed to provide data on normal (basal) values. Spleens were removed and weighed, and complete blood cell counts performed.

[5] = test system: hematopoietic recovery after cyclophosphamide; experiment: Hematopoietic recovery after cyclophosphamide (Example 47); format: in vivo, Balb/C mice
Description: Cyclophosphamide (CP) (275 mg/kg, i.p.) was administered to 48 Balb/C female mice weighing approximately 20 grams each. Twenty-four hours later and each day thereafter for a total of 6 days, mice were given a 0.4 ml i.p. injection of either physiological saline (controls), benzoylguanosine (2.5 μmoles/mouse/day in 0.2% Tween 80), or palmitoylguanosine (2.5 μmoles/mouse/day in 0.2% Tween 80). On days 7 and 10 following CP administration 8 animals from each of the 3 groups were bled and then were sacrificed by cervical dislocation. Spleens were removed and weighed, and complete blood cell counts performed.

Row | Molecule | inhibition of proliferation (FDCPmix cells) | activity at 0.01 µg/mL (FDCPmix cells) [%] | activity at 0.039 µg/mL (FDCPmix cells) [%] | activity at 0.156 µg/mL (FDCPmix cells) [%] | activity at 0.625 µg/mL (FDCPmix cells) [%] | activity at 2.5 µg/mL (FDCPmix cells) [%] | activity at 10 µg/mL (FDCPmix cells) [%] | Neutrophils [4] | Platelets [4] [K/μl] | WBC [4] | Spleen [4] [mg] | other results
1 | CCCCCCCCCCCCCCCC(=O)O[C@H]1C[C@H](n2cnc3c(=O)[nH]c(N)nc32)O[C@@H]1CO [3'-O-palmitoyldeoxyguanosine, 3'-O-Palmitoyl-2'-deoxyguanosine] |  |  |  |  |  |  |  |  |  |  |  | spleen weight [1]: significantly elevated; total neutrophil counts [1]: significantly elevated
2 | Palmitoylxanthosine |  |  |  |  |  |  |  |  |  |  |  | Neutrophils [2]: significantly increased; spleen weight [2]: significantly increased; total leukocytes [2]: significantly increased
3 | CCCCCCCCCCCCCCCC(=O)OC[C@H]1O[C@@H](n2c(Br)nc3c(=O)[nH]c(N)nc32)[C@H](O)[C@@H]1O [palmitoyl-8-bromoguanosine] |  |  |  |  |  |  |  |  |  |  |  | number of myelocytes [3]: significantly greater
4 | CCCCCCCC(=O)OC[C@H]1O[C@@H](n2cnc3c(=O)[nH]c(N)nc32)C[C@@H]1OC(=O)CCCCCCC [DiOctdG, 3',5'-di-O-octanoyl-2'-deoxyguanosine] | little or no inhibitory effects | 84 ± 2 | 86 ± 1 | 84 ± 6 | 93 ± 1 | 78 ± 2 | 100 ± 0.3 |  |  |  |  | 
5 | CCCCCCCC(=O)Nc1nc2c(ncn2[C@H]2C[C@H](OC(=O)CCCCCCC)[C@@H](COC(=O)CCCCCCC)O2)c(=O)[nH]1 [TriOctdG, 3',5'-O-N^2-trioctanoyl-2'-deoxyguanosine] | little or no inhibitory effects | 87 ± 4 | 85 ± 2 | 89 ± 6 | 86 ± 2 | 96 ± 0.1 | 107 ± 1 |  |  |  |  | 
6 | CCCCCCCCCCCCCCCCCC(=O)Nc1nc2c(ncn2[C@H]2C[C@H](OC(=O)CCCCCCCCCCCCCCCCC)[C@@H](COC(=O)CCCCCCCCCCCCCCCCC)O2)c(=O)[nH]1 [TriSdG, 3',5'-O-N^2-tristearyl-2'-deoxyguanosine] |  |  |  |  |  |  |  | 5.4 ± .5 K/μl | 498 ± 27 | 7.6 ± .4 K/μl | 85 ± 9 | 
7 | CCCCCCCC/C=C\CCCCCCCC(=O)Nc1nc2c(ncn2[C@H]2C[C@H](OC(=O)CCCCCCC/C=C\CCCCCCCC)[C@@H](COC(=O)CCCCCCC/C=C\CCCCCCCC)O2)c(=O)[nH]1 [TriOdG, 3',5'-O-N^2-trioleyl-2'-deoxyguanosine] | little or no inhibitory effects | 92 ± 5 | 91 ± 5 | 92 ± 5 | 98 ± 6 | 80 ± 2 | 110 ± 3 | 2.7 ± .4 K/μl | 741 ± 54 | 5.2 ± .4 K/μl | 59 ± 5 | lymphocyte counts ([4]; day 7 after CP, vs control): increased both platelet and lymphocyte counts
8 | Benzoylguanosine |  |  |  |  |  |  |  |  |  |  |  | Neutrophils ([5]; day 7, 2.5 μmoles/mouse/day): significantly elevated; spleen weight ([5]; day 7, 2.5 μmoles/mouse/day): significantly elevated; total white blood cells ([5]; day 7, 2.5 μmoles/mouse/day): significantly elevated; platelet number ([5]; day 10): significantly greater
9 | CCCCCCCCCCCCCCCC(=O)OC[C@H]1O[C@@H](n2cnc3c(=O)[nH]c(NC(=O)C(C)C)nc32)C[C@@H]1O [NibuPdG, N^2-isobutyryl-5'-O-palmitoyl-2'-deoxyguanosine] |  |  |  |  |  |  |  | 2.2 ± .5 K/μl | 649 ± 23 | 4.4 ± .5 K/μl | 69 ± 6 | spleen weight [1]: significantly elevated; total neutrophil counts [1]: significantly elevated
